Values quoted from earlier work as cited in patent US20260364145A1, “MODIFIED CAVEOLIN-1 PEPTIDE FORMULATIONS AND METHODS OF MANUFACTURING AND USE THEREOF” (REIN THERAPEUTICS, INC., priority 2023, published 2026).

Legend:
Conditions in all cases: cited from earlier work
[1] = system: fibrosis
[2] = system: Wnt-signaling, β-catenin-mediated transcription, activation of SRC, EGFR, MEK1 and ERK-2
[3] = system: Cav-1 interaction with SRC kinases

Sequence: DGIWKASFTTFTVTKYWFYR [CSP 20-mer]
- effect on fibrosis ([1]; animal models): prevent, limit, or reverse fibrosis in animal models
- effect on lung aSMA, epithelial apoptosis, collagen and profibrogenic signaling ([1]; in vivo): reduced lung aSMA and lung epithelial apoptosis, reduced collagen deposition, and down-regulation of expression of profibrogenic signaling molecules
- effect on signaling [2]: inhibition of Wnt-signaling, β-catenin-mediated transcription, activation of SRC, EGFR, MEK1 and ERK-2
- effect on Cav-1 interaction with SRC kinases [3]: interferes with Cav-1 interaction with SRC kinases
